The values below come from US20070270432A1, “Novel Method” (priority 2002, published 2007).

Data set [1] concerns polysialylated neurons in layer II of the entorhinal and perirhinal cortex. In words: NCAM PSA expression in medial temporal lobe after chronic administration. The data set is classed as in vivo, rat. The settings on record: 20 mg/kg; for PSA immunopositive cell frequency: medial temporal lobe, 40 days by gavage. The method, then: Experimentally naïve postnatal day 80 (at the time of NCAM-PSA assessment) male Wistar rats were employed in all studies. All animals were housed singly and maintained at 22±2° C. on a standard 12 h-light/dark cycle with food and water available ad libitum. Animals were introduced to the experimental holding rooms at least 3 days prior to the commencement of any study. The frequency of polysialylated neurons in the rat medial temporal lobe was also examined following chronic exposure to 5-HT6 antagonist. […] Horizontal cryosections were cut from the frozen tissue at various levels with reference to Bregma (see above), these were thaw-mounted onto glass slides, which were coated with poly-[…] diluted 1:1 in dH2O, and immersion fixed for 30 minutes with 70% ethanol. The sections were then washed twice for 10 minutes each in 0.1M phosphate buffered saline (PBS) and incubated for 20 hours in a humidified chamber at room temperature with the primary antibody diluted 1:500 in PBS containing 1% bovin serum albumin (w/v) and 1% normal goat serum (v/v) to reduce non-specific staining. The humidified chamber prevented the sections from evaporating. The primary antibody was a monoclonal raised against PSA, which was provided by Professor G, Rougon (CNRS UMR 6545, 13288 Marseille, France). On completion of the primary antibody incubation, the sections were washed twice for ten minutes each in PBS and incubated at room temperature for 3 hours in the humidified chamber with the secondary antibody, at a dilution factor of 1:100, again in PBS containing 1% BSA and 1% NGS. The secondary antibody was a goat anti-mouse IgM conjugated to fluorescein (FITC). Following the second incubation, the sections ware again washed twice for ten minutes each in PBS, mounted in the fluorescence enhancing medium Citifluor® and observed for fluorescence with a Leitz DM RB fluorescent microscope. Quantitative image analysis was performed using the Leica Quantimet 500®, a P.C.-based software package, which was connected to the fluorescence microscope with a high sensitivity CCD video camera. Each microscope lens was calibrated for length and area measurements using a 1 mm graticule. […] Cell identification was aided by the use of the nuclear counter-stain propidium iodide (40 ng/ml PBS; 60 sec). […] This was done for each section and a mean±SEM was calculated for each brain with the results expressed as PSA-positive cells per unit area. […] Cell identification was again aided by the use of the nuclear counter-stain propidium iodide (40 ng/ml PBS; 60 sec) with the use of alternate sections eliminating the possibility of double counting. Cell counts were divided by the length of the cortex and multiplied by the average length of the cortex, which was taken to be 10 mm. This was completed for each section and a mean±SEM was calculated for each brain with the results expressed as PSA-positive cells per unit length. […] NCAM PSA-positive cell numbers were obtained from each animal group. Results were expressed as mean±SEM with at least 3-6 values per group and analysed by ANOVA or unpaired non-parametric, Student's t-test, as indicated. […] Drug administration ceased 24 h prior to animal sacrifice. Animal weight gain and general physical condition was monitored daily. Methylcellulose (1% w/v) treated controls and use of the antipyschotic clozapine were employed for comparison.

Another data set deals with seizure threshold. As to conditions: rat MEST test, dose range 0.1-30 mg/kg; cited from earlier work.
The conditions of data set [2]: in vivo; cited from earlier work.
Data set [3] has as its system retention of a spacial memory task. The settings on record: rat, 10 mg/kg p.o.; cited from earlier work.

Turning to `COc1ccc(NS(=O)(=O)c2sc3ccc(Cl)cc3c2C)cc1N1CCNCC1.Cl` [SB271046, 5-Chloro-3-methylbenzo[b]thiophene-2-sulfonic acid (4-methoxy-3-piperazin-1-ylphenyl)amide hydrochloride], the “effect on frequency of polysialylated neurons in the rat medial temporal lobe” value in data set [1] (chronic exposure) is recorded as “increased”. For the same molecule, the “PSA immunopositive cell frequency” value is 61.7 ± 1.7 PSA-positive cells per unit length in data set [1] (Bregma level -7.1 mm), 69.9 ± 0.9 PSA-positive cells per unit length in data set [1] (Bregma level -7.6 mm), 125.4 ± 3.5 PSA-positive cells per unit length in data set [1] (Bregma level -8.1 mm) and 178.3 ± 12.2 PSA-positive cells per unit length in data set [1] (Bregma level -8.6 mm). The seizure threshold entry in the data set on seizure threshold was “increases seizure threshold”. Further, the oral bioavailability result in data set [2] is given as “orally bioavailable”. Moreover, the “retention of a spacial memory task” value in data set [3] was “significant improvements”.
